From patent publication US11795151B2, “Benzotriazole compound” (MIYOSHI OIL & FAT CO., LTD., priority 2017, dated 2023)

What was measured:
Assay type in all cases: physicochemical
[1] = Evaluation of UV absorption performance (1): absorbance spectra in chloroform; conditions: 100 μM, 10-mm quartz cell
Description: Compounds 1 to 12 were diluted with 100 μM of chloroform, placed in a 10-mm quartz cell, and the absorbance spectra were measured using an ultraviolet-visible spectrophotometer (V-550, manufactured by JASCO Corporation)(FIGS. 1 to 12).
The absorption peak (maximum absorption wavelength: λmax) and absorbance in the wavelength range of 350 to 390 nm were read from the absorption spectra of Compounds 1 to 12, and the molar extinction coefficient of the peak (maximum molar extinction coefficient: εmax) was obtained by the following equation (able 1). Molar extinction coefficient:εmax(L/(mol·cm))=A:Absorbance/[c:Mol concentration(mol/L)×1:Cell optical length(cm)] [Equation 1]
In addition, from the absorption spectra of Compounds 1 to 12, assuming that an intersection of a long-wavelength side absorption spectrum in the absorption peak at 350 to 390 nm and a baseline (a line where the slope of the absorption spectrum at 380 to 500 nm is zero) is set as a […] (for example: FIG. 1), the absolute value of the slope of the absorption peak on the long-wavelength side in the wavelength region at 350 to 390 nm was obtained by the following equation: |Slope of absorption peak on long wavelength side in wavelength region of 350 to 390 nm|=|(Absorbance at peak end−Absorbance at absorption peak in wavelength region of 350 to 390 nm)/(Absorption wavelength at peak end−Wave length at absorption peak in wavelength region of 350 to 390 nm)| [Equation 2]

[2] = Maximum solubility in various monomers; conditions: room temperature (20 to 30° C.), 4 hours
[3] = Evaluation of UV absorption performance (2): absorbance spectra in chloroform; conditions: 100 μM, 10-mm quartz cell
Description: Compounds 11 to 28 were diluted with 100 μM of chloroform and placed in a 10-mm quartz cell, and the absorbance spectra were measured using an ultraviolet-visible spectrophotometer (V-550, manufactured by JASCO Corporation)(FIGS. 11,12,14 to 29).
The absorption peak (maximum absorption wavelength: max) and absorbance in the wavelength range of 350 to 390 nm were read from the absorption spectra of Compounds 11 to 28, and a molar extinction coefficient (maximum molar extinction coefficient: εmax) of the peak was obtained by the following formula (Table 7): Molar extinction coefficient:εmax(L/(mol·cm))=A:Absorbance/[c:Mol concentration(mol/L)×1:Cell optical length(cm)] [Equation 3]
In addition, from the absorption spectra of Compounds 11 to 28, assuming that an intersection of a long-wavelength side absorption spectrum in the absorption peak at 350 to 390 nm and a baseline (a line where the slope of the absorption spectrum at […] is zero) is set as a peak end (for example: FIG. 1), the absolute value of the slope of the absorption peak on the long-wavelength side in the wavelength region at 350 to 390 nm was obtained by the following equation (Table 8): |Slope of absorption peak on long wavelength side in wavelength region of 350 to 390n|=|(Absorbance at peak end−Absorbance at absorption peak in wavelength region of 350 to 390 nm)/(Absorption wavelength at peak end−Wave length at absorption peak in wavelength region of 350 to 390 nm)| [Equation 4]

| SMILES | Absorbance at absorption peak in wavelength region of 350 to 390 nm [1] | Absorbance at peak end [1] | Absorption wavelength at peak end [1] [nm] | Molar extinction coefficient at peak (maximum molar extinction coefficient: εmax) [1] [L/mol/cm] | Wave length at absorption peak in wavelength region of 350 to 390 nm (maximum absorption wavelength: λmax) [1] [nm] | Maximum solubility ([2]; Dimethylacrylamide) [wt %] | Maximum solubility ([2]; Hexadiene) [wt %] | Maximum solubility ([2]; Methyl (meth)acrylate) [wt %] | Maximum solubility ([2]; Styrene) [wt %] | Maximum solubility ([2]; Vinyl acetate) [wt %] | Absorbance at absoprtion peak in wavelength region of 350 to 390 nm [3] | Absorbance at peak end [3] | Absorption wavelength at peak end [3] [nm] | Molar extinction coefficient at peak (maximum molar extinction coefficient: εmax) [3] [L/mol/cm] | Wave length at absorption peak in wavelength region of 350 to 390 nm (maximum absorption wavelength: λmax) [3] [nm] |
| --- | --- | --- | --- | --- | --- | --- | --- | --- | --- | --- | --- | --- | --- | --- | --- |
| C=C(C)C(=O)Oc1ccc(Sc2ccc3nn(-c4cc(C)cc(C(C)(C)C)c4O)nc3c2)cc1 [Compound 5] | 2.29 | 0.01022 | 422 | 21800 | 367 | 15 | 5 | 15 | 25 | 13 |  |  |  |  |  |
| C=C(C)C(=O)OCCCCCCOc1ccc(Sc2ccc3nn(-c4cc(C)cc(C(C)(C)C)c4O)nc3c2)cc1 [Compound 6] | 2.27 | 0.01184 | 424 | 21600 | 369 | 15 | 10 | 20 | 25 | 15 |  |  |  |  |  |
| CCCCCCCCCCCCC/C=C/C(=O)OCCCCCCSc1ccc2nn(-c3cc(C)cc(C(C)(C)C)c3O)nc2c1 [Compound 9] | 2.14 | 0.00702 | 422 | 21100 | 368 |  |  |  |  |  |  |  |  |  |  |
| CC(=O)OCCSc1ccc2nn(-c3cc(C)cc(C(C)(C)C)c3O)nc2c1 [Compound 13] |  |  |  |  |  |  |  |  |  |  | 2.22 | 0.0302 | 419 | 22200 | 365 |
| Cc1cc(-n2nc3ccc(SCCOC(=O)c4ccccc4)cc3n2)c(O)c(C(C)(C)C)c1 [Compound 14] |  |  |  |  |  |  |  |  |  |  | 2.21 | 0.02594 | 419 | 22100 | 365 |
| CCCCCCCCCCCCCCCCCC(=O)OCCCCCCSc1ccc2nn(-c3cc(C)cc(C(C)(C)C)c3O)nc2c1 [Compound 16] |  |  |  |  |  |  |  |  |  |  | 2.22 | 0.01846 | 420 | 22200 | 367 |
| CC(=O)Oc1ccc(Sc2ccc3nn(-c4cc(C)cc(C(C)(C)C)c4O)nc3c2)cc1 [Compound 17] |  |  |  |  |  |  |  |  |  |  | 2.24 | 0.01899 | 422 | 22400 | 366 |
| CCCCCCCCCCCCCCCCCC(=O)Oc1ccc(Sc2ccc3nn(-c4cc(C)cc(C(C)(C)C)c4O)nc3c2)cc1 [Compound 18] |  |  |  |  |  |  |  |  |  |  | 2.22 | 0.02575 | 420 | 22200 | 366 |
| Cc1cc(-n2nc3ccc(Sc4ccc(OC(=O)c5ccccc5)cc4)cc3n2)c(O)c(C(C)(C)C)c1 [Compound 19] |  |  |  |  |  |  |  |  |  |  | 2.29 | 0.02244 | 422 | 22900 | 366 |
| CCCCCCCCCCCCCCCCCCNC(=O)OCCCCCCSc1ccc2nn(-c3cc(C)cc(C(C)(C)C)c3O)nc2c1 [Compound 20] |  |  |  |  |  |  |  |  |  |  | 2.20 | 0.00489 | 423 | 22000 | 368 |
| CC(=O)Nc1ccc(Sc2ccc3nn(-c4cc(C)cc(C(C)(C)C)c4O)nc3c2)cc1 [Compound 21] |  |  |  |  |  |  |  |  |  |  | 2.24 | 0.00955 | 424 | 22400 | 369 |
| CCCCCCCCCCCCCCCCCC(=O)Nc1ccc(Sc2ccc3nn(-c4cc(C)cc(C(C)(C)C)c4O)nc3c2)cc1 [Compound 22] |  |  |  |  |  |  |  |  |  |  | 2.23 | 0.01382 | 424 | 22300 | 369 |
| Cc1cc(-n2nc3ccc(Sc4ccc(NC(=O)c5ccccc5)cc4)cc3n2)c(O)c(C(C)(C)C)c1 [Compound 23] |  |  |  |  |  |  |  |  |  |  | 2.34 | 0.01418 | 424 | 23400 | 369 |
| Cc1cc(-n2nc3ccc(Sc4ccc(NC(=O)c5ccc6ccccc6c5)cc4)cc3n2)c(O)c(C(C)(C)C)c1 [Compound 24] |  |  |  |  |  |  |  |  |  |  | 2.36 | 0.02 | 424 | 23600 | 368 |
| CCNC(=O)Nc1ccc(Sc2ccc3nn(-c4cc(C)cc(C(C)(C)C)c4O)nc3c2)cc1 [Compound 25] |  |  |  |  |  |  |  |  |  |  | 2.27 | 0.0174 | 424 | 22700 | 370 |
| CCCCCCCCCCCCCCCCCCNC(=O)Nc1ccc(Sc2ccc3nn(-c4cc(C)cc(C(C)(C)C)c4O)nc3c2)cc1 [Compound 26] |  |  |  |  |  |  |  |  |  |  | 2.17 | 0.1501 | 419 | 21700 | 368 |
| Cc1cc(-n2nc3ccc(Sc4ccc(NC(=O)Nc5ccccc5)cc4)cc3n2)c(O)c(C(C)(C)C)c1 [Compound 27] |  |  |  |  |  |  |  |  |  |  | 2.39 | 0.01868 | 425 | 23900 | 369 |
| COc1ccc(NC(=O)Nc2ccc(Sc3ccc4nn(-c5cc(C)cc(C(C)(C)C)c5O)nc4c3)cc2)cc1 [Compound 28] |  |  |  |  |  |  |  |  |  |  | 2.26 | 0.01853 | 423 | 22600 | 370 |
